This note sets out measurements from patent US12624018B1, “Inhibitors of RIPK2 and medical uses thereof” (Odyssey Therapeutics, Inc., priority 2022, dated 2026).

Read-outs that look alike come from different tables or passages of the source.

The subject of test [1] is human NOD2 signaling. As to the kind of experiment: Inhibition of human NOD2 signaling in HEK-Blue-hNOD2 cells (L18-MDP stimulated, SEAP reporter). As to conditions: NOD2 ligand stimulation, SEAP reporter, read-out: hNOD2 IC50. Type of test: cell-based. As for the experimental part: Materials: Human NOD32-expressing 1TEK293 cells, HEK-Blue™-hNOD2 cells, were developed by Invivogen (catalogue number: hkb-hnod2) using co-transfection of the human NOD2 gene and an optimized secreted embryonic alkaline phosphatase (SEAP) reporter gene into HTEK293 cells. The cell maintenance medium consisted of DMEM (Giboc, 21063-029), heat inactivated FBS, penicillin (100 U/mL), streptomycin (100 μg/mL), Normocin (100 μg/mL), Blasticidin (30 μg/mL), and Zeocin (100 μg/mL). HEK-Blue™-hNOD2 cells were transferred to assay medium consisting of DMEM (Giboc, 21063-029), heat inactivated FBS, penicillin (100 U/mL) and streptomycin (100 μg/mL) prior to stimulation. Stimulation with a NOD2 ligand, L18-MDP (Invivogen, catalogue number: tlrl-lmdp) activated NF-κB and AP-1 which induced the production of SEAP. Levels of SEAP were determined with HEK-Blue™ Detection (referred to as QUANTI-Blue solution), a cell culture medium that allows for real-time detection of SEAP. QUANTI-Blue solution was prepared by adding 1 mL of QB reagent and 1 mL of QB buffer to 98 mL of sterile H2O. Test compounds were prepared into a 10 mM DMSO solution and were serially diluted into 10 points using a 3-fold dilution in a 384 well plate using a TECAN EVO200.
Method: In a 384 well plate, 40 nL of test compound was dispensed using Echo550. HEK-Blue™-hNOD2 cells (Invivogen) were prepared into a cell suspension and 40 μL of the cell suspension (12500 cells per well) was dispensed into the 384 well plate. To activate NOD2 signaling, 40 nL of L18-MDP (final concentration of 0.5 ng/mL) was added and the plate was incubated at 37° C. in a CO2 incubator for 24 hours. After the 24-hour incubation, 5 μL of the induced HEK-Blue hNOD2 cell supernatant was transferred to a new 384-well plate, centrifuged, and 45 μL of QUANTI-Blue solution was added per well and incubated for 3 hours at 37° C. SEAP levels were measured using an Ensight at 620 nm. Percent inhibition of NOD2 signaling was determined using the following equation: (high control−test compound signal)/(High control−low control)×100. The reaction high control was determined using wells with DMSO, cells, L18-MDP, and QUANTI-Blue solution. The reaction low control was determined using wells with DMSO, cells, and QUANTI-Blue solution. 4-parametric curve fit was used to determine the test compound concentration that results in 50% reduction of L18-MDP-driven human NOD2 signaling.
Using the assay described above, inhibition of hNOD2 signaling was also evaluated for GSK 2983559 (Haile at al., J. Med. Chem. 2019, 62, 14, 6482-6494), a known RIPK2 kinase inhibitor: […]

Test [2] deals with T1, RIPK2 enzyme (Homo sapiens, UniProt O43353).
T1 construct: purchased Carna 09-128
The test can be described thus: RIPK2 inhibition (ADP-Glo Kinase Assay). As to conditions: RIPK2 5 nM, ATP 150 μM, MBP substrate, read-out: RIPK2 IC50. The format is biochemical. A digest of the protocol: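 Swine MBP substrate; compound and 5 nM RIPK2 first mixed for 30 min at room temperature; buffer pH 7.5 HEPES 50 mM with 10 mM MgCl2, 2 mM DTT, 1 mM EGTA, Brij-35, BSA.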

The mark [3] stands for this setting: Homo sapiens, HEK-Blue hNOD2, HEK-Blue-hNOD2 cells.

T1 sequence (O43353 1-299 limits assumed): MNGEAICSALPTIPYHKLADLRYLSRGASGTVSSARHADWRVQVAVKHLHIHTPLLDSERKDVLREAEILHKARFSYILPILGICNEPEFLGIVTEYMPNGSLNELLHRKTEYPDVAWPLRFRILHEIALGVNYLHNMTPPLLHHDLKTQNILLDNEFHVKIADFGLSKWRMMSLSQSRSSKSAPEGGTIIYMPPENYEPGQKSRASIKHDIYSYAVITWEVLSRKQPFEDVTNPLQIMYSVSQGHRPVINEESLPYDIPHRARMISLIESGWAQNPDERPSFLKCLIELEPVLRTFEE

On to `Cc1c(Oc2ccnc3ccc(S(=N)(=O)C4CC4)cc23)ccc(CC(=O)Nc2cnn(C34CC(C3)C4)c2)c1F` (single isomer, unassigned) [Compound 527], for which the IC50 was 0.7 nM in test [1] (HEK-Blue-hNOD2 cells) and below 2.5 nM in test [2].
For the molecule `Cc1c(Oc2ccnc3ccc(S(=N)(=O)C4CC4)cc23)ccc(CC(=O)Nc2cnn(C34CC(C3)C4)c2)c1F` (single isomer, unassigned) [Compound 528, N-(1-(bicyclo[1.1.1]pentan-1-yl)-1H-pyrazol-4-yl)-2-(4-((6-(cyclopropanesul-fonimidoyl)quinolin-4-yl)oxy)-2-fluoro-3-methylphenyl) acetamide], the IC50 in test [1] (setting [3]) is 0.8 nM; in test [2], below 2.5 nM.
For the molecule `N=S(=O)(c1ccc2nccc(Oc3cc(F)c(CC(=O)Nc4cnn(C56CC(C5)C6)c4)cc3Cl)c2c1)C1CC1` (single isomer, unassigned) [Compound 531, N-(1-(bicyclo[1.1.1]pentan-1-yl)-1H-pyrazol-4-yl)-2-(5-chloro-4-((6-(cyclopropanesul-fonimidoyl)quinolin-4-yl)oxy)-2-fluorophenyl) acetamide], the IC50 is 41.6 nM in test [1] (HEK-Blue-hNOD2 cells) and below 2.5 nM in test [2].
For `N=S(=O)(c1ccc2nccc(Oc3cc(F)c(CC(=O)Nc4cnn(C56CC(C5)C6)c4)cc3Cl)c2c1)C1CC1` (single isomer, unassigned) [Compound 532, N-(1-(bicyclo[1.1.1]pentan-1-yl)-1H-pyrazol-4-yl)-2-(5-chloro-4-((6-(cyclopropanesul-fonimidoyl)quinolin-4-yl)oxy)-2-fluorophenyl) acetamide], the IC50 was 16.9 nM in test [1] (HEK-Blue-hNOD2 cells) and below 2.5 nM in test [2].
On to `CC(C)(C)n1cc(NC(=O)Cc2cc(Cl)c(Oc3ccnc4ccc(S(=N)(=O)C5CC5)cc34)cc2F)cn1` (single isomer, unassigned) [Compound 533, N-(1-(tert-butyl)-1H-pyrazol-4-yl)-2-(5-chloro-4-((6-(cyclopropanesul-fonimidoyl)quinolin-4-yl)oxy)-2-fluorophenyl) acetamide], for which the IC50 in test [1] (setting [3]) is 10.4 nM; in test [2], below 2.5 nM.
With `CC(C)(C)n1cc(NC(=O)Cc2cc(Cl)c(Oc3ccnc4ccc(S(=N)(=O)C5CC5)cc34)cc2F)cn1` (single isomer, unassigned) [Compound 534, N-(1-(tert-butyl)-1H-pyrazol-4-yl)-2-(5-chloro-4-((6-(cyclopropanesulfonimidoyl)quinolin-4-yl)oxy)-2-fluorophenyl) acetamide], the IC50 in test [1] (HEK-Blue-hNOD2 cells) was 6 nM; in test [2], below 2.5 nM.
Turning to `CCS(=N)(=O)c1ccc2nccc(Oc3ccc(CC(=O)Nc4cnn(C(C)(C)C)c4)c(F)c3C)c2c1` (single isomer, unassigned) [Compound 535, N-(1-(tert-butyl)-1H-pyrazol-4-yl)-2-(4-((6-(ethylsulfonimidoyl)quinolin-4-yl)oxy)-2-fluoro-3-methylphenyl) acetamide], the IC50 in test [1] (setting [3]) is 0.8 nM; in test [2], below 2.5 nM.
With `CCS(=N)(=O)c1ccc2nccc(Oc3ccc(CC(=O)Nc4cnn(C(C)(C)C)c4)c(F)c3C)c2c1` (single isomer, unassigned) [Compound 536, N-(1-(tert-butyl)-1H-pyrazol-4-yl)-2-(4-((6-(ethylsulfonimi-doyl)quinolin-4-yl)oxy)-2-fluoro-3-methylphenyl) acetamide], the figures for the IC50 in test [1] (HEK-Blue-hNOD2 cells) and in test [2] were 0.7 nM and below 2.5 nM, respectively.
Consider `Cc1c(Oc2ccnc3ccc(S(=N)(=O)C(C)C)cc23)ccc(CC(=O)Nc2cnn(C(C)(C)C)c2)c1F` (single isomer, unassigned) [Compound 537, N-(1-(tert-butyl)-1H-pyrazol-4-yl)-2-(2-fluoro-3-methyl-4-((6-(propan-2-ylsulfonimidoyl)quinolin-4-yl)oxy)phenyl) acetamide], for which the IC50 is 0.4 nM in test [1] (setting [3]) and below 2.5 nM in test [2].
Regarding `Cc1c(Oc2ccnc3ccc(S(=N)(=O)C(C)C)cc23)ccc(CC(=O)Nc2cnn(C(C)(C)C)c2)c1F` (single isomer, unassigned) [Compound 538, N-(1-(tert-butyl)-1H-pyrazol-4-yl)-2-(2-fluoro-3-methyl-4-((6-(propan-2-ylsulfonimidoyl)quinolin-4-yl)oxy)phenyl) acetamide], the results for the IC50 in test [1] (HEK-Blue-hNOD2 cells) and in test [2] were 0.2 nM and below 2.5 nM, respectively.
For `Cc1c(Oc2ccnc3ccc(S(=N)(=O)C(C)(C)C)cc23)ccc(CC(=O)Nc2cnn(C(C)(C)C)c2)c1F` (single isomer, unassigned) [Compound 539, N-(1-(tert-butyl)-1H-pyrazol-4-yl)-2-(2-fluoro-3-methyl-4-((6-(2-methylpropan-2-ylsulfonimidoyl)quinolin-4-yl)oxy)phenyl) acetamide] the same measures were 1.2 nM and below 2.5 nM.
For `Cc1c(Oc2ccnc3ccc(S(=N)(=O)C(C)(C)C)cc23)ccc(CC(=O)Nc2cnn(C(C)(C)C)c2)c1F` (single isomer, unassigned) [Compound 540, N-(1-(tert-butyl)-1H-pyrazol-4-yl)-2-(2-fluoro-3-methyl-4-((6-(2-methylpropan-2-ylsulfonimidoyl)quinolin-4-yl)oxy)phenyl) acetamide] the same measures were 0.5 nM and below 2.5 nM.
As for `Cc1c(Oc2ccnc3ccc(S(=N)(=O)C4CCC4)cc23)ccc(CC(=O)Nc2cnn(C(C)(C)C)c2)c1F` (single isomer, unassigned) [Compound 541, N-(1-(tert-butyl)-1H-pyrazol-4-yl)-2-(4-((6-(cyclobutanesulf-onimidoyl)quinolin-4-yl)oxy)-2-fluoro-3-methylphenyl) acetamide], the IC50 in test [1] (setting [3]) is 0.3 nM; in test [2], below 2.5 nM.
In the case of `Cc1c(Oc2ccnc3ccc(S(=N)(=O)C4CCC4)cc23)ccc(CC(=O)Nc2cnn(C(C)(C)C)c2)c1F` (single isomer, unassigned) [Compound 542, N-(1-(tert-butyl)-1H-pyrazol-4-yl)-2-(4-((6-(cyclobutanesulf-onimidoyl)quinolin-4-yl)oxy)-2-fluoro-3-methylphenyl) acetamide], the IC50 in test [1] (HEK-Blue-hNOD2 cells) was 0.2 nM; in test [2], below 2.5 nM.
For the molecule `Cc1cc(CC(=O)Nc2cnn(C(C)(C)C)c2)ccc1Oc1ccnc2ccc(S(=N)(=O)C(C)(C)C)cc12` (single isomer, unassigned) [Compound 549, N-(1-(tert-butyl)-1H-pyrazol-4-yl)-2-(3-methyl-4-((6-(2-methylpropan-2-ylsulfonimidoyl)quinolin-4-yl)oxy)phenyl) acetamide], the figures for the IC50 in test [1] (setting [3]) and in test [2] were 18.2 nM and below 2.5 nM, respectively.
`Cc1cc(CC(=O)Nc2cnn(C(C)(C)C)c2)ccc1Oc1ccnc2ccc(S(=N)(=O)C(C)(C)C)cc12` (single isomer, unassigned) [Compound 550, N-(1-(tert-butyl)-1H-pyrazol-4-yl)-2-(3-methyl-4-((6-(2-methylpropan-2-ylsulfonimidoyl)quinolin-4-yl)oxy)phenyl) acetamide]: the IC50 is 11 nM in test [1] (HEK-Blue-hNOD2 cells) and below 2.5 nM in test [2].
Take `Cc1cc(CC(=O)Nc2cnn(C(C)(C)C)c2)ccc1Oc1ccnc2cc(F)c(S(=N)(=O)C3CC3)cc12` (single isomer, unassigned) [Compound 553, N-(1-(tert-butyl)-1H-pyrazol-4-yl)-2-(4-((6-(cyclopropane-sulfonimidoyl)-7-fluoroquinolin-4-yl)oxy)-3-methylphenyl) acetamide]: the figures for the IC50 in test [1] (setting [3]) and in test [2] were 5.6 nM and below 2.5 nM, respectively.
Turning to `Cc1cc(CC(=O)Nc2cnn(C(C)(C)C)c2)ccc1Oc1ccnc2cc(F)c(S(=N)(=O)C3CC3)cc12` (single isomer, unassigned) [Compound 554, N-(1-(tert-butyl)-1H-pyrazol-4-yl)-2-(4-((6-(cyclopropane-sulfonimidoyl)-7-fluoroquinolin-4-yl)oxy)-3-methylphenyl) acetamide], the IC50 was 4.9 nM in test [1] (HEK-Blue-hNOD2 cells) and below 2.5 nM in test [2].
